Assay results reported in EP0090736A1, “Steroidal nitroso ureum with oncostatic activity, process for its preparation and its use as a medicine” (Etablissement Public dit: CENTRE NATIONAL DE LA RECHERCHE …, priority 1982, dated 1983).

What was measured:
leucémie L1210 = assay: Oncostatic activity on L1210 leukemia in mice (survival T/C); format: in vivo, souris (DBA2 - C57BL 100); settings: for Dose optimale: L1210 leukemia, 10^5 cells i.p., treatment on days 1, 5 and 9, suspension in olive oil
Source text: Le composé selon la présente invention a été étudié sur la leucémie L1210 en comparaison avec d'autres nitrosourées présentant également des propriétés oncostatiques. Il s'agit essentiellement de la BCNU, la CCNU, la Me CCNU, la RFCNU, la RPCNU et la Chlorozotocine. Ces composés, ainsi que le XPCNU, sont bien connus et décrits par exemple dans Biomedicine Express, vol. 23, n° 10 du 10 décembre 1975, pages 410-413.
Pour chaque composé, 10^5 cellules leucémiques ont été inoculées à 80 souris (DBA2 - C57BL 100), par voie intrapéritonéale.
Les traitements ont débuté un jour après la transplantation et ont été poursuivis les cinquième et neuvième jours. Les dérivés devant être testés sont administrés en suspension dans l'huile d'olive à 70 souris. Les doses injectées sont variables, chaque souris étant pesée individuellement. Les 10 souris restantes constituent le groupe témoin et reçoivent, en placébo, des volumes équivalents d'huile d'olive.
Le premier jour, les nitrosourées testées sont administrées, en doses variables, aux souris traitées.
Les cinquième et neuvième jours, les injections sont renouvelées sans signe macroscopique de toxicité.
Pour chaque composé, les activités oncostatiques ont été déterminées pour une dose spécifique et varient en fonction de la quantité administrée. Lorsque l'activité oncostatique est supérieure à 125 et si la différence des groupes témoins et traités à une signification statistique (test de WILCOXON), le composé est considéré comme étant actif à la dose utilisée.
La figure ci-annexée indique en fonction des doses de principe actif appliquées en milligramme par kilogramme le rapport T/C défini comme suit : T/C = moyenne de survie des groupes traités / moyenne de survie des groupes témoins x 100
La mention ∞ indique que plus de 50 % des animaux traités sont guéris.

Acute toxicity (DL50) = format: in vivo
Method: On a, en outre, indiqué ci-après dans le tableau pour les composés connus et pour le composé selon la présente invention les MEDI, c'est-à-dire les doses médianes, les doses optimums les DL50 et par là l'index thérapeutique de ces composés.
On constate qu'à l'activité déterminée précédemment s'ajoute la dose médiane la plus grande jamais observée et une DL50 aiguë de 700 mg/kg qui est la plus avantageuse parmi toutes les autres nitrosourées, ce qui conduit à l'indice thérapeutique le plus élevé jamais obtenu jusqu'à présent pour ce type de composé oncostatique.

[1] = derived from DL50 and optimal dose on L1210

Row | SMILES | Dose optimale (leucémie L1210) [mg/kg] | DL50 (Acute toxicity (DL50); acute DL50) [mg/kg] | Index thérapeutique (Acute toxicity (DL50); [1]) | activité oncostatique (T/C) (leucémie L1210; T/C = mean survival treated / mean survival controls x 100, as a function of dose (figure), compared with other nitrosoureas) | LD50 (Acute toxicity (DL50); in vivo, acute DL50) [mg/kg] | selectivity ratio (Acute toxicity (DL50); mouse, in vivo, derived from DL50 and optimal dose on L1210, read-out: Index thérapeutique)
1 | O=NN(CCCl)C(=O)N[C@H]1C(O)O[C@H](CO)[C@@H](O)[C@@H]1O (some centres unmarked) [CZT, Chlorozotocine] | 15 | 35 | 2,33 |  |  | 
2 | C[C@]12CC[C@H]3[C@@H](CC=C4C[C@@H](O)CC[C@@]43C)[C@@H]1CC[C@@H]2NC(=O)N(CCCl)N=O [Composé ex. 1, 17β-(N-2-chloroéthyl-N'-nitrosouréyl)-5-androsten-3β-ol] | 125 |  |  | la meilleure activité oncostatique | 700 | 5.6
3 | CC1(C)O[C@@H]2[C@@H](COC(=O)c3ccc([N+](=O)[O-])cc3)OC(NC(=O)N(CCCl)N=O)[C@@H]2O1 (some centres unmarked) [RFCNU] | 20 | 90 | 4,5 |  |  | 
4 | CC(=O)O[C@@H]1[C@H](OC(C)=O)COC(NC(=O)N(CCCl)N=O)[C@@H]1OC(C)=O (some centres unmarked) [RPCNU] | 15 | 50 | 3,3 |  |  | 
5 | CC(=O)OC1COC(NC(=O)N(CCCl)N=O)C(OC(C)=O)C1OC(C)=O (centres unmarked) [XPCNU] | 15 |  |  |  |  | 
